These results are taken from patent publication US20030161827A1, “Therapies that improve graft survival” (priority 2000, published 2003).

The test system of this assay is renal allograft. Briefly: Unilateral renal transplantation, mAb and sirolimus (Example 2). It counts as in vivo, monkey. The note with it: n=4 per group; treatment until day 56, followed until day 119.

Method: Unilateral renal transplantation was performed in 12 blood group matched and MLR mismatched animals. […] Sirolimus was administered by daily gavage at 1 mg/kg at day 0 to day 13 and then 0.5 mg/kg from day 13 to day 56. All animals were off immunosuppression after day 56 and were then followed until day 119.

Compound `CO[C@H]1C[C@@H]2CC[C@@H](C)[C@@](O)(O2)C(=O)C(=O)N2CCCC[C@H]2C(=O)O[C@H]([C@H](C)C[C@@H]2CC[C@@H](O)[C@H](OC)C2)CC(=O)[C@H](C)/C=C(\C)[C@@H](O)[C@@H](OC)C(=O)[C@H](C)C[C@H](C)/C=C/C=C/C=C/1C` [sirolimus] gave a mean survival of 23 days.
